BindingDB's records for patent US12419873 (Zhuhai United Laboratories Co., 2025)

Columns and labels:
[1] = target: Tyrosine-protein kinase JAK1 (Homo sapiens, UniProt P23458); assay: JAK1 (h) Enzyme Reaction
Method: (§1) Mg/ATP mixture was added to start the reaction. After incubation at room temperature for 40 minutes, 0.5% phosphoric acid was added to stop the reaction.

[2] = target: T1, Tyrosine-protein kinase JAK3 (Homo sapiens, UniProt P52333); assay: JAK3 (h) Enzyme Reaction
T1 sequence (P52333 whole entry): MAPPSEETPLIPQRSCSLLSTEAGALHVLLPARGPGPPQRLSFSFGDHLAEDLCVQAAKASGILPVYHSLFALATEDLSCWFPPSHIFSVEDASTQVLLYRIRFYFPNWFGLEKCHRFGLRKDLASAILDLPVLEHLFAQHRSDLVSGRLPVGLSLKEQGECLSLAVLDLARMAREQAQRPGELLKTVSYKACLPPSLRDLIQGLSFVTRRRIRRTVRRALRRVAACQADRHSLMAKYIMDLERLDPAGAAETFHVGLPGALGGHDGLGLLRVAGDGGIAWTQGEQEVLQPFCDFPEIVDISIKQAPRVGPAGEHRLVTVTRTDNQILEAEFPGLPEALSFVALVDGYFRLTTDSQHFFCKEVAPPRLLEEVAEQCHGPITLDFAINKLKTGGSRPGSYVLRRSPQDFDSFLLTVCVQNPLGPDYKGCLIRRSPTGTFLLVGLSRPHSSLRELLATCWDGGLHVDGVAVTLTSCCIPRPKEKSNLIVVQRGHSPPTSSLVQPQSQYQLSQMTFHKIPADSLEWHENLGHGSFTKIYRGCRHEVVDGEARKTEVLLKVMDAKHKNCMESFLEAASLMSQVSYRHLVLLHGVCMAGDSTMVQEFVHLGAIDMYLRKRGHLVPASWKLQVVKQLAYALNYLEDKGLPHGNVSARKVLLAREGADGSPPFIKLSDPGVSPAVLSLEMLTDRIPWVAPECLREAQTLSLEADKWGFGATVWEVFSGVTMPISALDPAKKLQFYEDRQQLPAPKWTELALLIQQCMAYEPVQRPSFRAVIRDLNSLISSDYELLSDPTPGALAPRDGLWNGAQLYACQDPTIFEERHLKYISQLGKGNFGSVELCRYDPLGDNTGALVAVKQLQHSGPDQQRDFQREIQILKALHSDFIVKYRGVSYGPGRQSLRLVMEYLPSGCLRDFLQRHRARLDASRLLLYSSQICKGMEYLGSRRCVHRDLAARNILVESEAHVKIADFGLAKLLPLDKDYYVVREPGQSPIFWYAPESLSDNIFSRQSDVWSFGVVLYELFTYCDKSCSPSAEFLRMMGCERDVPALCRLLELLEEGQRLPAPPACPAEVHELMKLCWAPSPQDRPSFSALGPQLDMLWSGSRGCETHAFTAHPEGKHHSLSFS
Method: as §1

[3] = target: Non-receptor tyrosine-protein kinase TYK2 (Homo sapiens, UniProt P29597); assay: TYK2 (h) Enzyme Reaction
Method: as §1

[4] = target: Tyrosine-protein kinase JAK2 (Homo sapiens, UniProt O60674); assay: JAK2 (h) Enzyme Reaction
Tyrosine-protein kinase JAK2, sequence (O60674 whole entry): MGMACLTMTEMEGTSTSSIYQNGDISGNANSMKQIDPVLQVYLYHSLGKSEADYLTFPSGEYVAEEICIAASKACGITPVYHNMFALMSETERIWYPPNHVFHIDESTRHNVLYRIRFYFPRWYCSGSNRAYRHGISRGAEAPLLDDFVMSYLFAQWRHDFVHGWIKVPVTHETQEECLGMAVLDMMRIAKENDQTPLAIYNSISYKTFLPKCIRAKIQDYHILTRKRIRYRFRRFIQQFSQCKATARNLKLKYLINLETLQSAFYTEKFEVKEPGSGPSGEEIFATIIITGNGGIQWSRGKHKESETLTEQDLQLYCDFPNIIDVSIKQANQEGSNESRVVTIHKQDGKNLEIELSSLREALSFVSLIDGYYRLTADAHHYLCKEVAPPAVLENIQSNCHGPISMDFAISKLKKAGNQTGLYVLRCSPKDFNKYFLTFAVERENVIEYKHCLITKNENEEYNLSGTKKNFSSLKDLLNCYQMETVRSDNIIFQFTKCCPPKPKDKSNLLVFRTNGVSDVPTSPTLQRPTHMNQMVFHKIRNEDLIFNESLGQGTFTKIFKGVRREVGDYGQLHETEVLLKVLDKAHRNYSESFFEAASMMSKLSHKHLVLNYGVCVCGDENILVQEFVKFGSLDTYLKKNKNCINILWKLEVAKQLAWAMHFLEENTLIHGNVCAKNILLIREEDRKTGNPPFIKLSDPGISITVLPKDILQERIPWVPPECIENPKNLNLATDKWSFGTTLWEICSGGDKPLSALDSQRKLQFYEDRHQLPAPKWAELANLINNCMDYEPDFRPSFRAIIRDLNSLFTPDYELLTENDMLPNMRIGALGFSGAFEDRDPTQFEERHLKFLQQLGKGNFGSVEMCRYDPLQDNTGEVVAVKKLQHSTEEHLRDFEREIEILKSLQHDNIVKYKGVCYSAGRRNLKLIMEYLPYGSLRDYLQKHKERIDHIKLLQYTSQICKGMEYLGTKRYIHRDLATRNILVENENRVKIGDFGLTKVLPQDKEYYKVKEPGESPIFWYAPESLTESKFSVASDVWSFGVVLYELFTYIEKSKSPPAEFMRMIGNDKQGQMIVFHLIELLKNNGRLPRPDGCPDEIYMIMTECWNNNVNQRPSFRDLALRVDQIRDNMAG
Method: as §1

Non-receptor tyrosine-protein kinase TYK2, sequence (P29597 whole entry): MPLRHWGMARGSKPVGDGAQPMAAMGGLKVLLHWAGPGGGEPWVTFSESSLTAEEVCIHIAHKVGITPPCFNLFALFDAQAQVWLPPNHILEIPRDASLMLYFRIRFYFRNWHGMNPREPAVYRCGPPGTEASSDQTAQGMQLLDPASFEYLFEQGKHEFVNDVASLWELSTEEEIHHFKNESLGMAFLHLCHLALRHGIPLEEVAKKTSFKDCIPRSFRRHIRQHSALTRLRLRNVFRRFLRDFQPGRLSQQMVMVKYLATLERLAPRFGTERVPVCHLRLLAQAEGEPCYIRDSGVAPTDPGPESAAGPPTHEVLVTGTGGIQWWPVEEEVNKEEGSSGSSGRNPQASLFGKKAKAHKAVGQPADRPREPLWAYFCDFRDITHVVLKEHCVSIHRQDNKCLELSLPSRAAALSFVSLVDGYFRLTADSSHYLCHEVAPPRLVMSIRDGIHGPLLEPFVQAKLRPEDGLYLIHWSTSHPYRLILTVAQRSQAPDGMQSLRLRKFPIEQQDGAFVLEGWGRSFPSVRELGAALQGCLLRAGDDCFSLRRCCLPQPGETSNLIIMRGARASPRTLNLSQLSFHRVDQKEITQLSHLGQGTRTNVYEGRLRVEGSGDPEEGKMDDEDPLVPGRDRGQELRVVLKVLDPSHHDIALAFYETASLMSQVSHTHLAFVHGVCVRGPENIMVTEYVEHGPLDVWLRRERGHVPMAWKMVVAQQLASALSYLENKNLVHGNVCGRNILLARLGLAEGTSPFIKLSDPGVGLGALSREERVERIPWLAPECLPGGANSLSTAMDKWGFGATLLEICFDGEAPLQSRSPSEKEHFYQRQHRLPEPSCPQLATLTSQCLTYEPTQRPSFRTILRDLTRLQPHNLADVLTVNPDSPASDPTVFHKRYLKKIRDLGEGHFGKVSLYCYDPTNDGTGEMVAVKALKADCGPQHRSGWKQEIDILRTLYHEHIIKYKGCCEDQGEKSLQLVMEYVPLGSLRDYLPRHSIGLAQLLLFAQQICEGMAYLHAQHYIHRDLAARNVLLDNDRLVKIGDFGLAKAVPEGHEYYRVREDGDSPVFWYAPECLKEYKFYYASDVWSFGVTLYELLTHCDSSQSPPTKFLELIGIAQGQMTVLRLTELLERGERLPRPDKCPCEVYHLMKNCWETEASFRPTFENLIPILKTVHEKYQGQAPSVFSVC
Tyrosine-protein kinase JAK1, sequence (P23458 whole entry): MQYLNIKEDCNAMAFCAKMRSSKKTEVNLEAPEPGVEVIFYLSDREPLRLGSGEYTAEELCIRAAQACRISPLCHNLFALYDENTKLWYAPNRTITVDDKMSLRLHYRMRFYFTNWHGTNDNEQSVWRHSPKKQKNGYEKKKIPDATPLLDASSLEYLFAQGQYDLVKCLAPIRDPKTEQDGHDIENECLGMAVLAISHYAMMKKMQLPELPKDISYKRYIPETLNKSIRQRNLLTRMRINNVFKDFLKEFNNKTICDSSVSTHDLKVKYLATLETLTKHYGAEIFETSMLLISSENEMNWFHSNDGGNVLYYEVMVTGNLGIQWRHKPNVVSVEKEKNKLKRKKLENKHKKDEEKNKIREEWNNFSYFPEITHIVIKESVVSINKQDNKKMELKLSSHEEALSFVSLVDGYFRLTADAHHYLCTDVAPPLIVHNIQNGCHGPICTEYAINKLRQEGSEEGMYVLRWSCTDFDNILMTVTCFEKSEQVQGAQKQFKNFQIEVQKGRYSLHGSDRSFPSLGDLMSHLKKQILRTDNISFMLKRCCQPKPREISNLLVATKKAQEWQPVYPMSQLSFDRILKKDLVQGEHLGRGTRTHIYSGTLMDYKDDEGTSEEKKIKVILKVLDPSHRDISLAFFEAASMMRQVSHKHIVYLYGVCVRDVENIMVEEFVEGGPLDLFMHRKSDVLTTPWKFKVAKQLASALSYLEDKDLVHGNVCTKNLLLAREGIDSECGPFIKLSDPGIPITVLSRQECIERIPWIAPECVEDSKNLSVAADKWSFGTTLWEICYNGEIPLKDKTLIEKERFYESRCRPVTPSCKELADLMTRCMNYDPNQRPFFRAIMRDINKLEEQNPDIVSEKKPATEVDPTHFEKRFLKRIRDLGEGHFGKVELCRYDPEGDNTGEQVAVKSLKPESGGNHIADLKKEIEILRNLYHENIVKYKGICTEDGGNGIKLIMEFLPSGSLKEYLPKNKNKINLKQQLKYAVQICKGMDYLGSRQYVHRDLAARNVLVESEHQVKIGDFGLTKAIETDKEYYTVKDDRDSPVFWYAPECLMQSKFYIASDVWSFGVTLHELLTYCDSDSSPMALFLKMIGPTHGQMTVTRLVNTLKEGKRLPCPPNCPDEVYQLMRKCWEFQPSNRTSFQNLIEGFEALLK

Structure (SMILES): N#CCC(=O)N1CC2(CCC(c3cccc4nc(NC(=O)[C@@H]5CC5(F)F)nn34)CC2)C1 [US12419873, Compound 9-5]
- IC50 [1]: 224 nM
- IC50 [2]: > 10000 nM
- IC50 [3]: 175 nM
- IC50 [4]: 624 nM
